The experiment in a line: Fatty acid composition in the livers of rats fed DHA-containing oil (Example 2). The class given is in vivo, Wistar rats. As to conditions: rat liver, versus control group. An excerpt: Four-week-old male Wistar rats were initially raised for one week, and then divided into 2 groups described below.
perilla oil: safflower oil=7:3
rapeseed oil: DHA ethyl ester=3:2
For 4 weeks, the rats were fed experimental diets prepared by mixing 5% of the indicated oils for each of the groups to the basal feed.
The livers were excised from the raised rats of both groups, and lipids were extracted by the Folch method and upon conversion to the methyl ester, the amount of each fatty acid was analyzed by gas chromatography.

The structures appear in SMILES notation.

Take `CCC=CCC=CCC=CCC=CCC=CCC=CCCC(=O)O` [DHA, 4,7, 10, 13, 16, 19-docosahexaenoic acid]: the “effect on the proportion of ARA in the liver (in words)” value was “significant decrease in the proportion of ARA”.

(Values after US6596766B1, “Utilization of material containing docosapentaenoic acid” (Suntory Limited, priority 1999, dated 2003).)
